Experimental data as given in patent US20110225663A1, “METHOD FOR PRODUCING EUKARYOTIC ORGANISMS WITH ENHANCED PATHOGEN RESISTANCE AND/OR RESISTANCE TO STRESS AND EUKARYOTIC TRANSGENIC ORGANISMS WITH ENHANCED PATHOGEN RESISTANCE AND/OR RESISTANCE TO STRESS” (WESTFAELISCHE WILHELMS-UNIVERSITAET MUENSTER, priority 2008, published 2011).

Key:
G6PDH = assay: Inhibitor study with Glucosamine-6-P in tobacco leaves infected with P. nicotianae; format: in vivo
From the text: The involvement of the oxidative pentose phosphate pathway (OPPP) in the oxidative burst of plants was shown by inhibitor studies with Glucosamine-6 phosphate (Glucosamine-6-P). This is a well-known competitive inhibitor for G6PDH (as described in Glaser B L and Brown D H: Purification and properties of D-glucose 6-phosphate dehydrogenase, J Biol Chem 216, pp 67-79 (1955)), the first enzyme of the OPPP, which transforms G6P into 6-phosphogluconolactone.
Hydrogen peroxide (H2O2) accumulation was detected by in situ staining with 3,3-diaminobenzidine (DAB) following a modified protocol of Thordal-Christensen H, Zhang Z G, Wei Y D, Collinge D B: Subcellular localization of H2O2 in plants: H2O2 accumulation in papillae and hypersensitive response during the barley-powdery mildew interaction, Plant J 11, pp 1187-1194 (1997). Leaves were placed in DAB solution (1 mg mL^−1, pH 3.8) for 6 h. A dark-brown polymerization product formed at sites where DAB reacts with H2O2 produced by the tissue. Incubations were stopped and leaf tissue was simultaneously cleared from chlorophyll by boiling in ethanol for 10 min.

[1] = biological target: Arabidopsis thaliana glucose-6-phosphate dehydrogenase isoform At1g24280 (P2 class), N-terminally truncated without transit peptide (cP2, 5′ delta 195 bp) (Arabidopsis thaliana, UniProt Q8L743); assay: biochemical
[2] = biological target: Arabidopsis glucose-6-phosphate dehydrogenase P2 (At1g24280), recombinant enzyme with C-terminal Strep-tag; details: cited from earlier work
NADPH oxidase = test system: NADPH oxidase
From the text: This leads to the formation of hypersensitive lesions in leaf tissue of resistant varieties after pathogen infection (incompatible interaction).

[3] = FIG. 2 bottom, infiltrated tobacco leaf

Chain of Arabidopsis thaliana glucose-6-phosphate dehydrogenase isoform At1g24280 (P2 class), N-terminally truncated without transit peptide (cP2, 5′ delta 195 bp) (Q8L743 67-599): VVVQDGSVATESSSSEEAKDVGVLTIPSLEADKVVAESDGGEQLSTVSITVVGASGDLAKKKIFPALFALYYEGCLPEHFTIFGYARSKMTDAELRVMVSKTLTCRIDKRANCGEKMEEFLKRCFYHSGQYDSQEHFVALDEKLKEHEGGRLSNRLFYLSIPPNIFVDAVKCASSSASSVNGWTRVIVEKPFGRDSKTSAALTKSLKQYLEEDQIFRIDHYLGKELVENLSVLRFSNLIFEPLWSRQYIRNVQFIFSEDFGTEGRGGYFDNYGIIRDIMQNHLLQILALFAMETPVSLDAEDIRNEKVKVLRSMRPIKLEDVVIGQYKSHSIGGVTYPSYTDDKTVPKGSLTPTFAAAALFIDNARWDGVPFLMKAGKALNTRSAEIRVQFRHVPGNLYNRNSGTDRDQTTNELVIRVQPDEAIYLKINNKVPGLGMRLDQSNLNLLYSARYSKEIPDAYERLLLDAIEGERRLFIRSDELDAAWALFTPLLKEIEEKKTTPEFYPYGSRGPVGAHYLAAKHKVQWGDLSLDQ

N[C@@H]1[C@@H](O)[C@H](O)[C@@H](COP(=O)(O)O)O[C@@H]1O [GN6P, Glucosamine-6 phosphate]
defence-induced H2O2 production (DAB-staining) and formation of hypersensitive lesions (G6PDH; [3]): Interference | ROS production after infection with P. nicotianae (G6PDH; tobacco leaves treated with 25-50 mM GN6P): did not result in detectable ROS production

NC(=O)C1=CN([C@@H]2O[C@H](COP(=O)(O)OP(=O)(O)OC[C@H]3O[C@@H](n4cnc5c(N)ncnc54)[C@H](OP(=O)(O)O)[C@@H]3O)[C@@H](O)[C@H]2O)C=CC1 [NADPH, nicotinamide-dinucleotide phosphate, reduced form]
Ki [1]: 4.6 µM | Ki ([2]; Wakao and Benning (2005), read-out: Ki[NADPH]): 22 µM

c1ccc2c(c1)[I+]c1ccccc1-2 [DPI, diphenylene iodonium]
defence-induced H2O2 production (DAB-staining) and formation of hypersensitive lesions (NADPH oxidase; [3]): Interference | formation of hypersensitive lesions after infection with P. nicotianae (NADPH oxidase; tobacco leaves treated with 25-100 mM DPI): did not induce the formation of hypersensitive lesions

NC(=O)c1ccc[n+]([C@@H]2O[C@H](COP(=O)(O)OP(=O)(O)OC[C@H]3O[C@@H](n4cnc5c(N)ncnc54)[C@H](OP(=O)(O)O)[C@@H]3O)[C@@H](O)[C@H]2O)c1 [NADP+, nicotinamide-dinucleotide phosphate, oxidized form]
Km ([2]; read-out: Km[NADP+], Wakao and Benning (2005)): 17 µM
